Laboratory results taken from patent US7033765B1, “Site-specific drug delivery” (Toronto Research Chemicals, Inc., priority 1997, dated 2006).
Blank lines part the entries; values can stand above or below the molecule they belong to.

Assays:
[1] = target: T1, skeletal muscle (rSkM1) Na+ channels (Rattus norvegicus, UniProt P15390); assay: Two-electrode voltage-clamp of skeletal muscle (rSkM1) Na+ channels recorded in oocytes; type: cell-based
T1 construct: expressed in transfected cells; host or cells: Xenopus oocytes (injected)
Procedure: (§1) Oocytes were removed from adult female Xenopus.laevis frogs (NASCO, Fort Atkinson, Wis.; XENOPUS, Ann Arbor, Mich.) that had been anesthetized by immersion for 10-25 minutes in a 0.25% solution of tricaine (Sigma Chemical Co., St. Louis, Mo.) in tap water. A 5-fold excess of Na^+ channel protein β subunits compared to α subunits minimized the altered gating properties of Na^+ channel proteins in oocytes. Injected oocytes were incubated at 22° C. for 24-48 hr prior to recording.
For oocyte recordings, whole-cell currents were recorded at room temperature (approximately 23° C.) using a two-electrode voltage-clamp with 3 M KCl in the pipette and a bath solution containing: 96 mM NaCl, 4 mM KCl, 1 mM MgCl2, 1 mM CaCl2 and 10 mM HEPES (pH=7.6). Electrode pipettes were fabricated from 1.2 mm outer diameter thin-walled borosilicate glass (TW120F-6, World Precision Instruments Inc., Sarasota, Fla.) pulled on a Sutter puller (model P-87). Pipette tips were broken to a diameter of approximately 0.1 mm and plugged with agar made with 3 M KCl for a final resistance of 1-4 MΩ. The circuitry of the amplifier compensated for electrode series resistance (Oocyte Clamp OC-725A, Warner Instruments Inc., Hampden, Conn., USA). […]
Current-voltage relationships were produced by stepping the membrane potential from −60 to +50 mV by increments of 5 mV from a holding potential of −80 mV. […] Steady-state activation curves of whole-cell currents were calculated from the current-voltage relationships by scaling the peak currents by the net driving force (i.e., V−Erev) using the equation g=I/(V−Erev) where Erev=+45 to +60 mV. Steady-state fast-inactivation curves were constructed by normalizing the current recorded in test pulses to −10 mV following 50 msec prepulses to voltages ranging from −100 to −10 mV. […] Recovery from inactivation was assessed using a two-pulse protocol, in which identical depolarizing voltage pulses to −20 mV for 50 msec were applied to oocytes before (conditioning) and after (test) a variable duration repolarization to −80 mV (recovery potential). […]

[2] = target: T2, native heart Na+ channel proteins (Rattus norvegicus, UniProt P15389); assay: Patch-clamp recording of native heart Na+ channels in isolated rat ventricular myocytes; type: cell-based
T2 construct: native heart Na^+ channel proteins in isolated rat ventricular myocytes; endogenous in cells; host or cells: isolated rat ventricular myocytes
Procedure: Similar recording methods were used with isolated rat ventricular myocytes using the patch-clamp recording technique.
(§2) Preliminary studies have been performed on four prototypes of the drug illustrated in FIG. 3. Studies using these drugs were performed on three distinct types of Na^+ channel proteins: skeletal muscle Na^+ channel proteins expressed in Xenopus sp. oocytes, native heart Na^+ channel proteins in isolated rat ventricular myocytes and mutated skeletal muscle Na^+ channel proteins (i.e., Y401C) in which the naturally occurring tyrosine at position 401 was replaced with cysteine, the residue naturally found in heart. Native heart Na^+ channel proteins and Y401C channel proteins are referred to as “heart-like” Na^+ channel proteins.

HH1 Na+ channels = target: T3, HH1 Na+ channels (Homo sapiens, UniProt Q14524); assay: Two-electrode voltage-clamp of HH1 Na+ channels recorded in oocytes; type: cell-based
T3 construct: expressed in transfected cells; host or cells: Xenopus laevis oocytes (injected)
Procedure: as §1
(§3) For oocyte recordings, whole-cell currents were recorded at room temperature (approximately 23° C.) using a two-electrode voltage-clamp with 3 M KCl in the pipette and a bath solution containing: 96 mM NaCl, 4 mM KCl, 1 mM MgCl2, 1 mM CaCl2 and 10 mM HEPES (pH=7.6). Electrode pipettes were fabricated from 1.2 mm outer diameter thin-walled borosilicate glass (TW120F-6, World Precision Instruments Inc., Sarasota, Fla.) pulled on a Sutter puller (model P-87). Pipette tips were broken to a diameter of approximately 0.1 mm and plugged with agar made with 3 M KCl for a final resistance of 1-4 MΩ. The circuitry of the amplifier compensated for electrode series resistance (Oocyte Clamp OC-725A, Warner Instruments Inc., Hampden, Conn., USA). Leak subtraction was accomplished using a P/8 protocol from a holding potential of −120 mV. Current was filtered at 2 kHz and digitized at 10 kHz using an IBM-compatible computer, a Warner analog-digital interface (model PP-50 Lab 1), and custom acquisition software. In order to minimize difficulties associated with voltage-clamping oocytes expressing large numbers of channel proteins, whole-cell recordings were limited to oocytes expressing less than 5 μAmps of peak current.
(§4) The desired concentrations of local channel protein anesthetic drugs in ND96 were introduced to the bath by perfusion with at least 30 mL (bath volume=0.6 mL). Total bath exchange took less than 3 minutes and the drugs were allowed to equilibrate with the oocytes for a minimum of 6 minutes prior to recording.
(§5) Current-voltage relationships were produced by stepping the membrane potential from −60 to +50 mV by increments of 5 mV from a holding potential of −80 mV. A repetition frequency of 0.2 Hz was used for such voltage families. Steady-state activation curves of whole-cell currents were calculated from the current-voltage relationships by scaling the peak currents by the net driving force (i.e., V−Erev) using the equation g=I/(V−Erev) where Erev=+45 to +60 mV. Steady-state fast-inactivation curves were constructed by normalizing the current recorded in test pulses to −10 mV following 50 msec prepulses to voltages ranging from −100 to −10 mV. A repetition frequency of 0.2 Hz was used for the steady-state inactivation protocol. Recovery from inactivation was assessed using a two-pulse protocol, in which identical depolarizing voltage pulses to −20 mV for 50 msec were applied to oocytes before (conditioning) and after (test) a variable duration repolarization to −80 mV (recovery potential). The peak current evoked by the second (test) depolarization was normalized to the amplitude of the first (conditioning) depolarization and represents the fraction of channel proteins that had recovered from inactivation during the interpulse recovery period.

[3] = target: T4, Y401C Na+ channels (mutated rat skeletal muscle sodium channel protein μ1-2) (Rattus norvegicus, UniProt P15390, Y401C); assay: Two-electrode voltage-clamp of Y401C Na+ channels expressed in Xenopus oocytes; type: cell-based
T4 construct: expressed in transfected cells; host or cells: Xenopus laevis oocytes (injected)

cardiac Na+ channels = assay: DTT and Cd2+ test of C2 anchoring to the pore cysteine; type: cell-based
Description: To determine the role of the cysteine in the pore of cardiac Na^+ channel proteins, effects of C2 on Na^+ channel proteins were examined in the presence of Cd^2+ and dithiothreitol (DTT). […] Thus, it appears that C2 is linked to the Na^+ channel protein via a disulfide bond.
Cd^2+ binds with very high affinity to free sulfhydryls but not disulfide linked sulfhydryls. To determine whether the cysteines are binding to the drug, after washout of the C2 from Na^+ channel proteins channel proteins, Cd^2+ was added. […] Following DTT application, C2 modified channel proteins restore their sensitivity to Cd^2+ and this restoration occurs simultaneous with the reversal of the local anesthetic effects.

Na+ channel proteins = assay: Whole-cell Na+ current recordings with site-specific agents (channel type not stated); type: cell-based; conditions: for slow component of recovery from inactivation in modified channels: FIG. 8B
Procedure: as §3, §4, §5, §2

[4] = during application of 500 μM C2
[5] = repetitive depolarization to −10 mV at 10 Hz, 30 μM lidocaine
[6] = with 30 μM lidocaine, HH1 channels
[7] = with 30 μM lidocaine, Y401C channels

T3 sequence (Q14524 whole entry): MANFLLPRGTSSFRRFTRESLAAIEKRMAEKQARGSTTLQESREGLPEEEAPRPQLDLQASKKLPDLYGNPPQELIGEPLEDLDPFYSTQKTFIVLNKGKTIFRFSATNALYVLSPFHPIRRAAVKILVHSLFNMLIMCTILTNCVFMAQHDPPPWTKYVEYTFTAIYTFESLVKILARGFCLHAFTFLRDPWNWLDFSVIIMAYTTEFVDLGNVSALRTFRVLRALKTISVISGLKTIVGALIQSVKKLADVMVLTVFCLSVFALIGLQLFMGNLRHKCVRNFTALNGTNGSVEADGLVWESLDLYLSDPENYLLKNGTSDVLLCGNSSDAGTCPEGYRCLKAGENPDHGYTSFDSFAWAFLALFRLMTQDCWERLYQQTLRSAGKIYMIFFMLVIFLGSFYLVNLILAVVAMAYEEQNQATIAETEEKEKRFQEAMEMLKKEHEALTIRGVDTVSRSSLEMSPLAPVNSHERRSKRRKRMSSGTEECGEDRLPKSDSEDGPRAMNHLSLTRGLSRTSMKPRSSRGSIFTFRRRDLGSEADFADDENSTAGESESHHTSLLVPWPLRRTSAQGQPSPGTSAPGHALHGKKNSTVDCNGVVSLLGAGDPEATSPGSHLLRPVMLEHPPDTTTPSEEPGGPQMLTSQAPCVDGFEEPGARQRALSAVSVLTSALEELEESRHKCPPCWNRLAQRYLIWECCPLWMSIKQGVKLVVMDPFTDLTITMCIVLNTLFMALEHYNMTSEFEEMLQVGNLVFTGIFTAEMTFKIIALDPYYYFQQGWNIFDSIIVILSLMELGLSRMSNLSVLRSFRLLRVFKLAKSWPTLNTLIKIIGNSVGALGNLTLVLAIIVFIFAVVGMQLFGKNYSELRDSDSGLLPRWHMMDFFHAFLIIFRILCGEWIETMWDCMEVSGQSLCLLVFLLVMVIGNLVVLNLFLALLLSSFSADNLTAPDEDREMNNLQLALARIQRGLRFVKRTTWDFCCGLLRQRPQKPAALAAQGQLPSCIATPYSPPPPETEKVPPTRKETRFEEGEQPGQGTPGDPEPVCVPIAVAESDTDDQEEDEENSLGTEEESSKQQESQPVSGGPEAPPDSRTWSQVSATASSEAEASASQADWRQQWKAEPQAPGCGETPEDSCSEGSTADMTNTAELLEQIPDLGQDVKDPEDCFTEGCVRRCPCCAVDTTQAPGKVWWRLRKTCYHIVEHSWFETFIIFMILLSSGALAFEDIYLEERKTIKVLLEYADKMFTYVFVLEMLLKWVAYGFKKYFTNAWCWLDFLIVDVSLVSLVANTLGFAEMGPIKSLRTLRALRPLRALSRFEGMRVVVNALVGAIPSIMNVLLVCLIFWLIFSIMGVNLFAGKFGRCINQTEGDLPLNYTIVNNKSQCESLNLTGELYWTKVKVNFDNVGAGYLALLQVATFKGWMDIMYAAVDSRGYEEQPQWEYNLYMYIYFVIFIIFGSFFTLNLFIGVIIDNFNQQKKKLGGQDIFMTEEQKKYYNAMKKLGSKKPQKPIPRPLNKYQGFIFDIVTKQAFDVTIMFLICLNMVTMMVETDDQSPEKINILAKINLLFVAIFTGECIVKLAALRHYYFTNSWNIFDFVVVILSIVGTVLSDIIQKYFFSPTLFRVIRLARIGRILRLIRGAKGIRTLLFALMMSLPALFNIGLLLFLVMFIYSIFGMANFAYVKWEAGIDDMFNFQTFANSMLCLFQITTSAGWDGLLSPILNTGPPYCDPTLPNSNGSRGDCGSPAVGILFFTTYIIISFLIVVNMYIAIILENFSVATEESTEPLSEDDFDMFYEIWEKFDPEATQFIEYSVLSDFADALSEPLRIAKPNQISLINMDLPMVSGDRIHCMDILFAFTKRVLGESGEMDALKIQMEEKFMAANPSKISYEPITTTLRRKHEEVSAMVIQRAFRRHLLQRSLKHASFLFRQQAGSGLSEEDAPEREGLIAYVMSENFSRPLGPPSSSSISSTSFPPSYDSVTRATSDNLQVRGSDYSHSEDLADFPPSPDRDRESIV
T1 sequence (P15390 whole entry): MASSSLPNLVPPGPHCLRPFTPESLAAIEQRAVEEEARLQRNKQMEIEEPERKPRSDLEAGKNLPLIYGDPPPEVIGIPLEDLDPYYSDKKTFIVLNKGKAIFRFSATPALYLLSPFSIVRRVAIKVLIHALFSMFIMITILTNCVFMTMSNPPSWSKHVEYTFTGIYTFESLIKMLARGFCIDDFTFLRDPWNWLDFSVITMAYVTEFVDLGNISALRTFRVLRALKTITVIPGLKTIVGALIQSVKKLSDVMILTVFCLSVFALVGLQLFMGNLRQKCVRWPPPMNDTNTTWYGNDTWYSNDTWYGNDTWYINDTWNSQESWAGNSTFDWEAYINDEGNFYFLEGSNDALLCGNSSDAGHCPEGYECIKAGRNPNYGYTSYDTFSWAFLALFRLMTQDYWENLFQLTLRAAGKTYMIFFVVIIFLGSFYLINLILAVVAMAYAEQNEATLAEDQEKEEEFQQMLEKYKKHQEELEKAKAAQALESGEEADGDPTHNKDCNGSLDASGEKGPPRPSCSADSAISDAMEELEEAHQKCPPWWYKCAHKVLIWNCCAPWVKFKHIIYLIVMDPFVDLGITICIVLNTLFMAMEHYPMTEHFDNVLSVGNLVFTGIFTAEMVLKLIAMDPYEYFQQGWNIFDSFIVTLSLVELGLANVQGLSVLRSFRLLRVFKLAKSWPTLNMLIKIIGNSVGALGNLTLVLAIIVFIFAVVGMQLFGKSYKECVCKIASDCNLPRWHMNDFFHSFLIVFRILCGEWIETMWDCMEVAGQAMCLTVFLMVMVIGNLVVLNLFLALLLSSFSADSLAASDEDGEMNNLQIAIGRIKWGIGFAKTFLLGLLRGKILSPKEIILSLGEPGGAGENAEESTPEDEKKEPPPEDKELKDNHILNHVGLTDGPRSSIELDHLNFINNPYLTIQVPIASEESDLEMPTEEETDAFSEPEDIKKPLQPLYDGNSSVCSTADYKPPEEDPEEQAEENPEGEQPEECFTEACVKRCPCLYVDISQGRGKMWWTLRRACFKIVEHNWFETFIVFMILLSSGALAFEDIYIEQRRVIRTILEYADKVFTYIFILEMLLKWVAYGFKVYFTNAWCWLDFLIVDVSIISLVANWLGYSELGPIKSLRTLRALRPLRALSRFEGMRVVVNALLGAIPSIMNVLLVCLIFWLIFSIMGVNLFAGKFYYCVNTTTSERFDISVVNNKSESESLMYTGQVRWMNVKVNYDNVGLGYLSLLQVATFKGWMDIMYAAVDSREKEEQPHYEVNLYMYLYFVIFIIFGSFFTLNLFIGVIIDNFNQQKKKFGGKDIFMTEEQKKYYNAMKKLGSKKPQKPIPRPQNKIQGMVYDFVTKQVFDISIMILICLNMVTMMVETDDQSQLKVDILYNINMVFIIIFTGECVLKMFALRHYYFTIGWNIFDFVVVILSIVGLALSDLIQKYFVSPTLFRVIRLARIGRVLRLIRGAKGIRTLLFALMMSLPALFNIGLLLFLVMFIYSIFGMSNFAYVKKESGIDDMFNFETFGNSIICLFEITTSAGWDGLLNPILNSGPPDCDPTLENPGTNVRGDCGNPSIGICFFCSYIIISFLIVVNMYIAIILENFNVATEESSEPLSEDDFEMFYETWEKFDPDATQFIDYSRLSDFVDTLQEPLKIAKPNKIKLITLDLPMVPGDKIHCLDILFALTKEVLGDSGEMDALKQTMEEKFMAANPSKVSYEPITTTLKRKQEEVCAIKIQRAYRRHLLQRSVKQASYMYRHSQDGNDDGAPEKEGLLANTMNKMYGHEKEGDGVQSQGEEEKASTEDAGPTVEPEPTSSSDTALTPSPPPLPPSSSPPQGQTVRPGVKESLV
T1 sequence (Q00954 19-218 partner): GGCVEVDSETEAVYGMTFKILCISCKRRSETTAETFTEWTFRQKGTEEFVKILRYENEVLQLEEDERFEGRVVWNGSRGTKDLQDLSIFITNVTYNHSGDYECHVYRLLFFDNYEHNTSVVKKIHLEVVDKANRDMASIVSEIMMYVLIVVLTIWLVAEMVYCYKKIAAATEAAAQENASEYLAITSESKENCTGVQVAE
T4 sequence (P15390 whole entry Y401C): as the sequence (P15390 whole entry) above, with Y401C counted along it
T4 sequence (Q00954 19-218 partner): as the sequence (Q00954 19-218 partner) above

melting point: 73 to 74 °C
SMILES: CS(=O)(=O)SCCCCCCCCCCOC(=O)c1ccc(N)cc1 [Formula C10, 12-(4-aminophenyl)-12-oxo-11-oxadodecyl methanethiosulfonate]

melting point: 85 to 86 °C
SMILES: CS(=O)(=O)SCCCCCCOC(=O)c1ccc(N)cc1 [Formula C6, 8-(4-aminophenyl)-8-oxo-7-oxaoctyl methanethiosulfonate]
potency relative to C2 (Na+ channel proteins): far more potent than C2

Second part, the molecule before the results:

SMILES: CS(=O)(=O)SCCOC(=O)c1ccc(N)cc1 [Formula C2, 4-(4-aminophenyl)-4-oxo-3-oxabutyl methanethiosulfonate]
time constant for recovery from inactivation ([1]; after C2 washout): 13.7 ms | time constant for recovery from inactivation ([1]; in the presence of 500 μM C2): 56.7 ms | reversibility on washout ([1]; skeletal tissue): washed out | reversibility of binding on washout [2]: irreversible | time constant for recovery from inactivation (HH1 Na+ channels; after the application of C2 (washout)): 66 ms | time constant for recovery from inactivation (HH1 Na+ channels; [4]): 45 ms | reversibility of effects on washout ([3]; Y401C channels): inability to wash out | time constant for recovery from inactivation ([3]; after C2 application (washout)): 40.4 ms | time constant for recovery from inactivation [3, 4]: 39.0 ms | reversal of the current decrease by DTT (cardiac Na+ channels; 10 mM DTT after C2 washout): completely reversed | block of Na+ current by μM Cd2+ after washout of the agent (cardiac Na+ channels; Cd2+ added after C2 washout): no longer blocked | change of whole-cell currents (cardiac Na+ channels; following C2 washout (FIG. 7A)): decreased | effect of DTT on the irreversible binding after washout (cardiac Na+ channels; presence of DTT): totally inhibited | use-dependence of Na+ channel current inhibition (Na+ channel proteins): very little use-dependent block | recovery from inactivation (Na+ channel proteins; 100 μM to 1 mM): slowing | steady-state inactivation curve (Na+ channel proteins; 100 μM to 1 mM): leftward shifts | whole-cell Na+ current (Na+ channel proteins; 100 μM to 1 mM): decreases | whole-cell Na+ current decay following channel activation (Na+ channel proteins; 100 μM to 1 mM): enhanced rates | shift of the sensitivity of the channels to block by lidocaine (Na+ channel proteins; C2 anchoring, FIG. 9): nearly two orders of magnitude | slow component of recovery from inactivation in modified channels (Na+ channel proteins): not observed | melting point: 112 to 113 °C

SMILES: CCN(CC)CC(=O)Nc1c(C)cccc1C [lidocaine, reference compound]
use-dependent block (HH1 Na+ channels; [5]): use-dependent block | tfast, first rapid phase of recovery from inactivation (HH1 Na+ channels; [6]): 16.11 ms | tslow, second slow component of recovery from inactivation (HH1 Na+ channels; [6]): 763 ms | use-dependent block [3, 5]: use-dependent block | tfast, first rapid phase of recovery from inactivation [3, 7]: 5.0 ms | tslow, second slow component of recovery from inactivation [3, 7]: 365 ms

SMILES: CCOC(=O)c1ccc(N)cc1 [benzocaine, reference compound]
slow component of recovery from inactivation in modified channels (Na+ channel proteins): not observed

SMILES: Cc1cccc(C)c1NC(=O)CNCCSS(C)(=O)=O [Formula T2, 1-(2,6-dimethylphenyl)-2,8,8-trioxo-1,4-diaza-7,8-dithianonane]
use-dependence of Na+ channel current inhibition (Na+ channel proteins): use-dependent
